Format in all cases: functional, cell-based
For one test, the system named is HL-60. The test is described as follows: Cytotoxicity against human HL60 cells by MTT assay.
The test system of another test is MCF7. The test is described as follows: Cytotoxicity against human MCF7 cells by MTT assay. On the technique in general: Tetrazolium assays rely on reduction of a dye to a coloured formazan, in cell work by metabolically active cells.
The test system of the next test is A549. The test is described as follows: Cytotoxicity against human A549 cells by MTT assay.
In a further test the test system is P388. The test is described as follows: Cytotoxicity against mouse P388 cells by MTT assay.

Where only a bound is given, the exact number is not on record here.

What is called IC50 is the point on the concentration scale where inhibition reaches its midpoint. The low end stands for greater potency in that assay, the high end for weaker potency in that assay. For `COc1ccc2c(c1)C(=O)c1c(NCCc3ccc(O)cc3)c(OC)cc3ccnc-2c13` [DAURIOXOISOPORPHINE A], the IC50 in the test on HL-60 was greater than 50 µM; with MCF7, 3 µM; in the test on A549, 8.8 µM; with P388 it was 30.5 µM.

Regarding `COc1ccc2c(c1)C(=O)c1c(N)c(OC)c(OC)c3ccnc-2c13` [DAURIOXOISOPORPHINE B], the IC50 in the test with HL-60 is greater than 50 µM; in the test on MCF7 it was 6.2 µM; in the test on A549, greater than 50 µM; in the test with P388, 9.6 µM.

In the case of `COc1cc([C@@H]2c3cc4c(cc3[C@@H](O[C@@H]3O[C@@H]5CO[C@@H](C)O[C@H]5[C@H](O)[C@H]3O)[C@H]3COC(=O)[C@H]23)OCO4)cc(OC)c1O` [ETOPOSIDE], the IC50 in the test on HL-60 amounted to 5.4 µM; in the test with MCF7, 12.3 µM; with A549, 0.5 µM; with P388 it was 0.1 µM.

The record behind these values is ChEMBL document CHEMBL1137806, “Cytotoxic oxoisoaporphine alkaloids from Menispermum dauricum” (J Nat Prod, 2001).
